From US6576671B1, “Aminotetralin derivatives for the therapy of cardiovascular diseases” (Chiese Farmaceutici S.p.A., priority 1999, dated 2003)

Key:
α2 adrenergic receptors [1] = molecular target: T1, α2 adrenergic receptors (Homo sapiens, UniProt P08913); assay: α2 adrenergic receptor binding, [3H]-rauwolscine, human platelets; conditions: human platelets; read-out: IC50, 50% inhibition of [3H]-rauwolscine specific binding
T1 construct: from tissue; host or cells: human platelets
T1 sequence (P08913 1-465): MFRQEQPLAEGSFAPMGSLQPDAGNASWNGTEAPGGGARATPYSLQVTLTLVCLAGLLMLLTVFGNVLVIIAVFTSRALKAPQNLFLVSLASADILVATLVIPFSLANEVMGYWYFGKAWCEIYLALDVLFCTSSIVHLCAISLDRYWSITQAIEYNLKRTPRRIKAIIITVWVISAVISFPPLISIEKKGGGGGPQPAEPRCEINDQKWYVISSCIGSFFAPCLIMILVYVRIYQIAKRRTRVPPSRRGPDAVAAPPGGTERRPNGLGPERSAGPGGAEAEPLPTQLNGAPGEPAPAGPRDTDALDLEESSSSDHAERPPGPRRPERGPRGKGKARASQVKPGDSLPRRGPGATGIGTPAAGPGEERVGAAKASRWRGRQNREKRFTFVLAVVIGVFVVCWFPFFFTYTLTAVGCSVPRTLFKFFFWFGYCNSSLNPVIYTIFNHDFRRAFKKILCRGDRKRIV
Description: (§1) The antagonist [^3H]-rauwolscine was used as marker of the receptor, being its binding reversible, saturable and specific.

α2 adrenergic receptors [2] = assay: α2 adrenergic receptor binding, [3H]-rauwolscine, rat cerebral cortex; conditions: rat cerebral cortex; read-out: IC50, 50% inhibition of [3H]-rauwolscine specific binding
Procedure: The affinity of CHF 1024 and CHF 1035 for α2, adrenergic receptors was tested on human platelets and on rat cerebral cortex.
as §1
Values are expressed as IC50=molar concentration of drug required for 50% inhibition of [^3H]-rauwolscine specific binding.

α2-adrenergic receptors = assay: α2-adrenergic activity in isolated neuronally-stimulated rat vas deferens
anesthetized rats = assay: In vivo cardiovascular effects in anesthetized rats; design: species or system rat
Procedure: Male albino rats (Sprague Dawley, 350-400 g) were anesthetized by sodium pentobarbital (60 mg/kg) and maintained by i.v. infusion (6 mg/h). The trachea was cannulated to facilitate spontaneous respiration and body temperature was maintained at 37 C. Homoiothermic Blanket Control System (Harvard, England).
The right femoral artery was cannulated for arterial blood pressure measurement and left jugular vein or duodenum were cannulated for drug administration. Mean arterial pressure and heart rate were continuously monitored by pressure transducer and medium gain amplifier triggered by the ECG signal, respectively. […]
CHF 1035 was administered intraduodenally (1 mg/kg).
The response to […] was determined in the absence and in the presence of the selective β2-adrenoceptor antagonist ICI 118.551 (0.2 mg/kg i.v.) and the selective DA2-dopaminergic antagonist domperidone (0 3 mg/kg i.v.) both alone and in combination. The antagonists were administered 10 min before the i.d. drug administration.

[3] = test system: patients with a moderate congestive heart failure (class NYHA II-III); assay: Randomized double-blind study versus placebo, hemodynamic and neurohumoral parameters; format: in vivo, human
Procedure: In order to investigate the effects of the compound both on the hemodynamic parameters and the neurohumoral pattern, a randomized double-blind study versus placebo was carried out in 18 patients with a moderate congestive heart failure (class NYHA II-III).
Each patient received on 3 consecutive days 2 active doses of CHF 1035 and 1 placebo dose.
The following hemodynamic parameters were evaluated:
pulmonary capillary wedge pressure (PCWP) (mmHg);
cardiac index (CJ) (L/min/m^2);
stroke volume index (SVI) (ml/min/m^2);
systemic vascular resistance (SVR) (dyneseccm^−5);
mean blood pressure (BPm) (mmHg).
The evaluations were carried out by catheterization of the right heart (Swan-Ganz catheter), measuring the hemodynamic parameters of the tested medicament before administration or “pre-dose” (PD) and for the 300 subsequent minutes after the administration or “after-dose” (AD), every 20 minutes for the first 2 hours, then every 60 minutes.
To evaluate the effects of the compound on neurohormones, noradrenaline (NE) (pg/ml) and adrenalin (E) (pg/ml) plasmatic levels were further evaluated, before and 140 minutes after the administration of CHF 1035 and placebo, respectively.

[4] = test system: plasma and tissue esterases; assay: Transformation into the desesterified form after administration; format: in vivo
[5] = 5 mg, 140 minutes after administration (AD)
[6] = 5 mg, before administration (PD)
[7] = 10 mg, 140 minutes after administration (AD)
[8] = 10 mg, before administration (PD)
[9] = 15 mg, 140 minutes after administration (AD)
[10] = 15 mg, before administration (PD)

**Q.** How did the IC50 (α2 adrenergic receptors [1]) turn out when CNC1CCc2c(ccc(OC(=O)C(C)C)c2OC(=O)C(C)C)C1 (stereo not shown) [CHF 1035, 5,6-Diisobutyroyloxy-2-methylaminotetralin] was run?
**A.** Its IC50 is 27000 nM.

**Q.** What about the IC50 (α2 adrenergic receptors [2]) of the same compound?
**A.** Its IC50 is 2650 nM.

**Q.** What about the IC50 (α2-adrenergic receptors; isolated neuronally-stimulated rat vas deferens, read-out: IC50, 50% inhibition of the electrically induced contraction) of the same compound?
**A.** Its IC50 is 71.4 nM.

**Q.** And the “more potent than dopamine” value (α2-adrenergic receptors; rat vas deferens)?
**A.** Its value is ~70 times.

**Q.** What about the “peak hypotensive effect after pretreatment with the β2-antagonist” value (anesthetized rats; 1 mg/kg i.d., ICI 118.551 0.2 mg/kg i.v. 10 min before) of the same compound?
**A.** Its value is “significantly reduced”.

**Q.** And the “hypotensive response after both antagonists combined” value (anesthetized rats; 1 mg/kg i.d., ICI 118.551 and domperidone)?
**A.** The value was “completely abolished”.

**Q.** And the “time to complete recovery of basal value after DA2-antagonist pretreatment” value (anesthetized rats; 1 mg/kg i.d., domperidone i.v. 10 min before, hypotensive response significantly shortened)?
**A.** The value was 60 min.

**Q.** What about the “hypotensive response, peak effect, reduction from basal value” (anesthetized rats; 1 mg/kg intraduodenal, 5 min after administration) of the same compound?
**A.** Its value is “about 45%”.

**Q.** What about the “hypotensive response, reduction from basal value” (anesthetized rats; 1 mg/kg intraduodenal, 2 hours after administration) of the same compound?
**A.** The value was “about 20%”.

**Q.** What about the blood pressure (anesthetized rats; intraduodenal, 1 mg/kg) of the same compound?
**A.** Its blood pressure is “markedly reduced”.

**Q.** And the heart rate (anesthetized rats; intraduodenal, 1 mg/kg)?
**A.** Its heart rate is “without affecting”.

**Q.** And the “reduction in the peripheral vascular resistances” value ([3]; 5 mg)?
**A.** Its value is −15.4%.

**Q.** And the “adrenalin (E) plasmatic level” value [3, 5]?
**A.** The value was 42 pg/mL.

**Q.** And the “noradrenaline (NE) plasmatic level” value [3, 5]?
**A.** Its value is 301 pg/mL.

**Q.** What about the “cardiac index (CI)” value ([3]; 5 mg, after-dose (AD)) of the same compound?
**A.** Its value is 3.4 L/min/m^2.

**Q.** And the “heart rate (HR)” value ([3]; 5 mg, after-dose (AD))?
**A.** Its value is 78 bpm.

**Q.** And the “mean blood pressure (BPm)” value ([3]; 5 mg, after-dose (AD))?
**A.** The value was 82 mmHg.

**Q.** What about the “pulmonary capillary wedge pressure (PCWP)” value ([3]; 5 mg, after-dose (AD)) of the same compound?
**A.** Its value is 18 mmHg.

**Q.** And the “stroke volume index (SVI)” value ([3]; 5 mg, after-dose (AD))?
**A.** The value was 43 ml/min/m^2.

**Q.** And the “systemic vascular resistance (SVR)” value ([3]; 5 mg, after-dose (AD))?
**A.** Its value is 1052 dyneseccm^−5.

**Q.** What about the “adrenalin (E) plasmatic level” value [3, 6] of the same compound?
**A.** Its value is 56 pg/mL.

**Q.** What about the “noradrenaline (NE) plasmatic level” value [3, 6] of the same compound?
**A.** The value was 299 pg/mL.

**Q.** And the “cardiac index (CI)” value ([3]; 5 mg, pre-dose (PD))?
**A.** The value was 3 L/min/m^2.

**Q.** What about the “heart rate (HR)” value ([3]; 5 mg, pre-dose (PD)) of the same compound?
**A.** The value was 74 bpm.

**Q.** What about the “mean blood pressure (BPm)” value ([3]; 5 mg, pre-dose (PD)) of the same compound?
**A.** The value was 85 mmHg.

**Q.** What about the “pulmonary capillary wedge pressure (PCWP)” value ([3]; 5 mg, pre-dose (PD)) of the same compound?
**A.** Its value is 22 mmHg.

**Q.** What about the “systemic vascular resistance (SVR)” value ([3]; 5 mg, pre-dose (PD)) of the same compound?
**A.** The value was 1243 dyneseccm^−5.

**Q.** And the “reduction in the peripheral vascular resistances” value ([3]; 10 mg)?
**A.** Its value is −27.0%.

**Q.** And the “adrenalin (E) plasmatic level” value [3, 7]?
**A.** The value was 62 pg/mL.

**Q.** And the “noradrenaline (NE) plasmatic level” value [3, 7]?
**A.** The value was 244 pg/mL.

**Q.** What about the “cardiac index (CI)” value ([3]; 10 mg, after-dose (AD)) of the same compound?
**A.** Its value is 3.4 L/min/m^2.

**Q.** And the “heart rate (HR)” value ([3]; 10 mg, after-dose (AD))?
**A.** Its value is 76 bpm.

**Q.** What about the “mean blood pressure (BPm)” value ([3]; 10 mg, after-dose (AD)) of the same compound?
**A.** Its value is 77 mmHg.

**Q.** And the “pulmonary capillary wedge pressure (PCWP)” value ([3]; 10 mg, after-dose (AD))?
**A.** The value was 16 mmHg.

**Q.** What about the “stroke volume index (SVI)” value ([3]; 10 mg, after-dose (AD)) of the same compound?
**A.** Its value is 45 ml/min/m^2.

**Q.** What about the “systemic vascular resistance (SVR)” value ([3]; 10 mg, after-dose (AD)) of the same compound?
**A.** The value was 1009 dyneseccm^−5.

**Q.** And the “adrenalin (E) plasmatic level” value [3, 8]?
**A.** Its value is 65 pg/mL.

**Q.** What about the “noradrenaline (NE) plasmatic level” value [3, 8] of the same compound?
**A.** Its value is 285 pg/mL.

**Q.** What about the “cardiac index (CI)” value ([3]; 10 mg, pre-dose (PD)) of the same compound?
**A.** The value was 2.7 L/min/m^2.

**Q.** What about the “heart rate (HR)” value ([3]; 10 mg, pre-dose (PD)) of the same compound?
**A.** Its value is 70 bpm.

**Q.** And the “mean blood pressure (BPm)” value ([3]; 10 mg, pre-dose (PD))?
**A.** Its value is 85 mmHg.

**Q.** What about the “pulmonary capillary wedge pressure (PCWP)” value ([3]; 10 mg, pre-dose (PD)) of the same compound?
**A.** The value was 20 mmHg.

**Q.** And the “stroke volume index (SVI)” value ([3]; 10 mg, pre-dose (PD))?
**A.** Its value is 38 ml/min/m^2.

**Q.** What about the “systemic vascular resistance (SVR)” value ([3]; 10 mg, pre-dose (PD)) of the same compound?
**A.** Its value is 1382 dyneseccm^−5.

**Q.** And the “reduction in the peripheral vascular resistances” value ([3]; 15 mg)?
**A.** Its value is −35.2%.

**Q.** And the “adrenalin (E) plasmatic level” value [3, 9]?
**A.** The value was 58 pg/mL.

**Q.** And the “noradrenaline (NE) plasmatic level” value [3, 9]?
**A.** Its value is 308 pg/mL.

**Q.** And the “cardiac index (CI)” value ([3]; 15 mg, after-dose (AD))?
**A.** The value was 4 L/min/m^2.

**Q.** What about the “heart rate (HR)” value ([3]; 15 mg, after-dose (AD)) of the same compound?
**A.** The value was 80 bpm.

**Q.** And the “mean blood pressure (BPm)” value ([3]; 15 mg, after-dose (AD))?
**A.** Its value is 79 mmHg.

**Q.** What about the “pulmonary capillary wedge pressure (PCWP)” value ([3]; 15 mg, after-dose (AD)) of the same compound?
**A.** The value was 16 mmHg.

**Q.** What about the “stroke volume index (SVI)” value ([3]; 15 mg, after-dose (AD)) of the same compound?
**A.** The value was 49 ml/min/m^2.

**Q.** And the “systemic vascular resistance (SVR)” value ([3]; 15 mg, after-dose (AD))?
**A.** The value was 881 dyneseccm^−5.

**Q.** And the “adrenalin (E) plasmatic level” value [3, 10]?
**A.** The value was 53 pg/mL.

**Q.** What about the “noradrenaline (NE) plasmatic level” value [3, 10] of the same compound?
**A.** The value was 340 pg/mL.

**Q.** What about the “cardiac index (CI)” value ([3]; 15 mg, pre-dose (PD)) of the same compound?
**A.** The value was 3 L/min/m^2.

**Q.** What about the “heart rate (HR)” value ([3]; 15 mg, pre-dose (PD)) of the same compound?
**A.** Its value is 74 bpm.

**Q.** And the “mean blood pressure (BPm)” value ([3]; 15 mg, pre-dose (PD))?
**A.** The value was 87 mmHg.

**Q.** And the “pulmonary capillary wedge pressure (PCWP)” value ([3]; 15 mg, pre-dose (PD))?
**A.** Its value is 21 mmHg.

**Q.** And the “stroke volume index (SVI)” value ([3]; 15 mg, pre-dose (PD))?
**A.** Its value is 40 ml/min/m^2.

**Q.** What about the “systemic vascular resistance (SVR)” value ([3]; 15 mg, pre-dose (PD)) of the same compound?
**A.** Its value is 1359 dyneseccm^−5.

**Q.** What about the “increase in heart rate” value ([3]; 5, 10, 15 mg, only a relative increase) of the same compound?
**A.** Its value is “not clinically significant”.

**Q.** What about the catecholamines plasmatic levels ([3]; during systemic vasodilation) of the same compound?
**A.** Its catecholamines plasmatic levels is “without inducing any reflected increase”.

**Q.** What about the “transformation by plasma and tissue esterases into the active desesterified form” value [4] of the same compound?
**A.** The value was “Immediately after the administration”.
